Measurements: ChEMBL document CHEMBL5576099, “Isolation, Characterization, and Antiproliferative Activity of Terpenoids from the Tropical Plant Turraea delphinensis” (J Nat Prod, 2024)
pIC50: −log10 of the molar value.

Experiments:
Format in all cases: functional, cell-based
MCF7 = assay: Antiproliferative activity against human MCF7 cells assessed as reduction in cell viability by SRB assay
[1] = Antiproliferative activity against human KB-VIN cells over expressing p-gp assessed as reduction in cell viability by SRB assay; settings: KBVIN
KB = assay: Antiproliferative activity against human KB cells assessed as reduction in cell viability by SRB assay
MDA-MB-231 = assay: Antiproliferative activity against human MDA-MB-231 cells assessed as reduction in cell viability by SRB assay
A549 = assay: Antiproliferative activity against human A549 cells assessed as reduction in cell viability by SRB assay

C[C@H](C/C=C/C(C)(C)O)[C@H]1CC[C@@]2(C)[C@@H]3CC[C@H]4C(C)(C)C(=O)CC[C@@]45C[C@@]35CC[C@]12C
pIC50 (MCF7): < 5.00 | pIC50 [1]: < 5.00 | pIC50 (KB): < 5.00 | pIC50 (MDA-MB-231): < 5.00 | pIC50 (A549): 5.02

C[C@@H](C[C@@H](O)[C@H](O)C(C)(C)O)[C@@H]1CC[C@]2(C)C3=CC[C@H]4C(C)(C)[C@@H](O)CC[C@]4(C)[C@H]3CC[C@@]12C
pIC50 (MCF7): < 5.00 | pIC50 [1]: 5.01 | pIC50 (KB): 5.09 | pIC50 (MDA-MB-231): < 5.00 | pIC50 (A549): 5.10

CC(C)=C[C@@H]1C[C@H]([C@H]2CC[C@@]3(C)[C@@H]4CC[C@H]5C(C)(C)C(=O)CC[C@@]56C[C@@]46CC[C@]23C)CO1
pIC50 (MCF7): < 5.00 | pIC50 [1]: < 5.00 | pIC50 (KB): < 5.00 | pIC50 (MDA-MB-231): < 5.00 | pIC50 (A549): < 5.00

C[C@@H]([C@H](O)/C=C/C(C)(C)O)[C@@H]1CC[C@]2(C)C3=CC[C@H]4C(C)(C)C(=O)CC[C@]4(C)[C@H]3CC[C@@]12C
pIC50 (MCF7): < 5.00 | pIC50 [1]: 5.02 | pIC50 (KB): 5.05 | pIC50 (MDA-MB-231): < 5.00 | pIC50 (A549): < 5.00

C=C[C@]1(C)C=C2C(=O)CC3C(C)(C)CCC[C@]3(C)C2CC1 (stereo partly drawn)
pIC50 (MCF7): < 5.00 | pIC50 [1]: < 5.00 | pIC50 (KB): < 5.00 | pIC50 (MDA-MB-231): < 5.00 | pIC50 (A549): < 5.00

CC(C)=CC(O)C[C@H](C)[C@@H]1CC[C@]2(C)C3=CCC4C(C)(C)[C@@H](O)CC[C@]4(C)[C@H]3CC[C@@]12C (stereo partly drawn)
pIC50 (MCF7): < 5.00 | pIC50 [1]: < 5.00 | pIC50 (KB): < 5.00 | pIC50 (MDA-MB-231): < 5.00 | pIC50 (A549): < 5.00

CC1(C)OCC([C@@H]2CC[C@]3(C)C4=CC[C@H]5C(C)(C)C(=O)CC[C@]5(C)[C@H]4CC[C@@]23C)C[C@@H](O)[C@@H]1O (stereo partly drawn)
pIC50 (MCF7): < 5.00 | pIC50 [1]: 5.10 | pIC50 (KB): 5.02 | pIC50 (MDA-MB-231): < 5.00 | pIC50 (A549): 5.08

C=C[C@]1(C)C=C2C(CC1)[C@@]1(C)CCCC(C)(C)C1C[C@@H]2O (stereo partly drawn)
pIC50 (MCF7): < 5.00 | pIC50 [1]: < 5.00 | pIC50 (KB): < 5.00 | pIC50 (MDA-MB-231): < 5.00 | pIC50 (A549): < 5.00

CC1(C)C(=O)CC[C@@]2(C)C1CC=C1[C@@H]2CC[C@@]2(C)[C@H](C3CO[C@@H](C(C)(C)O)[C@H](O)C3)CC[C@]12C (stereo partly drawn)
pIC50 (MCF7): < 5.00 | pIC50 [1]: < 5.00 | pIC50 (KB): < 5.00 | pIC50 (MDA-MB-231): < 5.00 | pIC50 (A549): < 5.00

CC(=O)O[C@H]1[C@@H](OC(C)=O)[C@@]2(C)C3=CC[C@@H]([C@H]4COC(=O)C4)[C@]3(C)CC[C@@H]2[C@@]2(C)[C@@H](O)C[C@@H](O)C(C)(C)[C@H]12
pIC50 (MCF7): < 5.00 | pIC50 [1]: < 5.00 | pIC50 (KB): < 5.00 | pIC50 (MDA-MB-231): < 5.00 | pIC50 (A549): < 5.00

CC(C)=CC(=O)C[C@@H](C)[C@H]1CC[C@@]2(C)[C@@H]3CC[C@H]4C(C)(C)C(=O)CC[C@@]45C[C@@]35CC[C@]12C
pIC50 (MCF7): < 5.00 | pIC50 [1]: < 5.00 | pIC50 (KB): < 5.00 | pIC50 (MDA-MB-231): < 5.00 | pIC50 (A549): < 5.00

C[C@H](C/C=C/C(C)(C)O)[C@H]1CC[C@@]2(C)[C@@H]3CC[C@H]4C(C)(C)[C@H](O)CC[C@@]45C[C@@]35CC[C@]12C
pIC50 (MCF7): < 5.00 | pIC50 [1]: < 5.00 | pIC50 (KB): < 5.00 | pIC50 (MDA-MB-231): 5.03 | pIC50 (A549): < 5.00

C=C1CC[C@@H]2[C@H]([C@H]3[C@@H]1CC[C@]3(C)O)[C@@]2(C)CCC=C(C)C
pIC50 (MCF7): < 5.00 | pIC50 [1]: < 5.00 | pIC50 (KB): < 5.00 | pIC50 (MDA-MB-231): < 5.00 | pIC50 (A549): < 5.00

CC(C)CC(=O)[C@@H](O)[C@H](C)[C@@H]1CC[C@]2(C)C3=CC[C@H]4C(C)(C)C(=O)CC[C@]4(C)[C@H]3CC[C@@]12C
pIC50 (MCF7): < 5.00 | pIC50 [1]: < 5.00 | pIC50 (KB): < 5.00 | pIC50 (MDA-MB-231): < 5.00 | pIC50 (A549): < 5.00

CC(C)=CC(=O)C[C@@H](C)[C@H]1CC[C@@]2(C)[C@@H]3CC[C@H]4C(C)(C)[C@@H](O)CC[C@@]45C[C@@]35CC[C@]12C
pIC50 (MCF7): < 5.00 | pIC50 [1]: < 5.00 | pIC50 (KB): < 5.00 | pIC50 (MDA-MB-231): < 5.00 | pIC50 (A549): < 5.00

CC(C)=CCC[C@@H](CO)[C@H]1CC[C@@]2(C)[C@@H]3CC[C@H]4C(C)(C)C(=O)CC[C@@]45C[C@@]35CC[C@]12C
pIC50 (MCF7): < 5.00 | pIC50 [1]: 5.21 | pIC50 (KB): 5.41 | pIC50 (MDA-MB-231): 5.13 | pIC50 (A549): 5.19

CC(C)=CCC[C@]1(C)[C@H]2[C@@H]3[C@H](C)CC[C@H]3[C@](C)(O)CC[C@H]21
pIC50 (MCF7): < 5.00 | pIC50 [1]: < 5.00 | pIC50 (KB): 5.05 | pIC50 (MDA-MB-231): < 5.00 | pIC50 (A549): 5.05

C[C@@H](C[C@@H](O)[C@@H]1OC1(C)C)[C@@H]1CC[C@]2(C)C3=CC[C@H]4C(C)(C)C(=O)CC[C@]4(C)[C@H]3CC[C@@]12C
pIC50 (MCF7): 5.16 | pIC50 [1]: 5.21 | pIC50 (KB): 5.34 | pIC50 (MDA-MB-231): 5.15 | pIC50 (A549): 5.23

C[C@@H]([C@@H]1O[C@@H]1[C@@H]1OC1(C)C)[C@@H]1CC[C@]2(C)C3=CC[C@H]4C(C)(C)C(=O)CC[C@]4(C)[C@H]3CC[C@@]12C
pIC50 (MCF7): < 5.00 | pIC50 [1]: 5.08 | pIC50 (KB): 5.09 | pIC50 (MDA-MB-231): < 5.00 | pIC50 (A549): 5.27

CC(C)=C[C@H]1C[C@H]([C@H]2CC[C@@]3(C)[C@@H]4CC[C@H]5C(C)(C)C(=O)CC[C@@]56C[C@@]46CC[C@]23C)CO1
pIC50 (MCF7): < 5.00 | pIC50 [1]: < 5.00 | pIC50 (KB): < 5.00 | pIC50 (MDA-MB-231): < 5.00 | pIC50 (A549): < 5.00

CC(C)=C[C@H](O)C[C@@H](CO)[C@H]1CC[C@@]2(C)[C@@H]3CC[C@H]4C(C)(C)C(=O)CC[C@@]45C[C@@]35CC[C@]12C (mixture of isomers)
pIC50 (MCF7): < 5.00 | pIC50 [1]: 5.00 | pIC50 (KB): < 5.00 | pIC50 (MDA-MB-231): < 5.00 | pIC50 (A549): < 5.00

C[C@H]([C@H]1OC(C)(C)[C@@H](O)[C@@H]1O)[C@@H]1CC[C@]2(C)C3=CC[C@H]4C(C)(C)C(=O)CC[C@]4(C)[C@H]3CC[C@@]12C (relative stereo)
pIC50 (MCF7): < 5.00 | pIC50 [1]: < 5.00 | pIC50 (KB): < 5.00 | pIC50 (MDA-MB-231): < 5.00 | pIC50 (A549): < 5.00

CC(C)(O)[C@@H]1CC[C@H]([C@H]2CC[C@@]3(C)[C@@H]4CC[C@H]5C(C)(C)C(=O)CC[C@@]56C[C@@]46CC[C@]23C)CO1 (relative stereo)
pIC50 (MCF7): < 5.00 | pIC50 [1]: < 5.00 | pIC50 (KB): < 5.00 | pIC50 (MDA-MB-231): < 5.00 | pIC50 (A549): 5.04

C[C@H](C[C@@H](O)[C@@H]1OC1(C)C)[C@H]1CC[C@@]2(C)[C@@H]3CC[C@H]4C(C)(C)C(=O)CC[C@@]45C[C@@]35CC[C@]12C (relative stereo)
pIC50 (MCF7): < 5.00 | pIC50 [1]: < 5.00 | pIC50 (KB): < 5.00 | pIC50 (MDA-MB-231): < 5.00 | pIC50 (A549): < 5.00

C[C@@H](C[C@@H](O)[C@@H]1OC1(C)C)[C@@H]1CC[C@]2(C)C3=CC[C@H]4C(C)(C)[C@@H](O)CC[C@]4(C)[C@H]3CC[C@@]12C [DIHYDRONILOTICIN]
pIC50 (MCF7): 5.14 | pIC50 [1]: 5.29 | pIC50 (KB): 5.32 | pIC50 (MDA-MB-231): 5.33 | pIC50 (A549): 5.28

CC(=O)O[C@H]1C(=O)[C@@]2(C)[C@H]([C@H](OC(=O)c3ccccc3)[C@]3(O)C[C@H](OC(=O)[C@H](O)[C@@H](NC(=O)c4ccccc4)c4ccccc4)C(C)=C1C3(C)C)[C@]1(OC(C)=O)CO[C@@H]1C[C@@H]2O [PACLITAXEL]
pIC50 [1]: 5.66 | pIC50 (KB): 8.15 | pIC50 (MDA-MB-231): 8.08
